The values below are quoted from earlier work in patent US20020016372A1, “Method for preventing and treating alzheimer's disease and brain damage associated with cardiov ascular disease and head injury” (priority 2000, published 2002).

“Also recorded” adds a separate entry of the source. Where two headings read alike, the source gives them in different places.

The subject of data set [1] is NGF. The conditions noted are these: aged rodents.
Data set [2] deals with Human Lymphocytes. As to conditions: comet assay.
The test system of data set [3] is Caco-2 Colon Carcinoma Cells. As to conditions: oxidant effect.
Data set [4] relates to brain sulfotransferase. The conditions noted are these: mice; for brain sulfotransferase activity: in vivo.
For data set [5] the following is noted: rat, dietary supplementation.
For data set [6], the system named is protein tyrosine phosphorylation in the brain. The conditions noted are these: chick embryo.

Turning to `COC1=C(OC)C(=O)C(CCCCCCCCCCO)=C(C)C1=O` [Idebenone], the “NGF levels in the brains” value in data set [1] is “increases”. Moreover, the “activity in AD patients” value (European trials) is “appeared to have some activity” and the “activity in AD patients” value (U.S. trial (abandoned)) was “no activity was found”.

On to `CC1=CC(=O)c2ccccc2C1=O` [menadione, 2-methylnaphthoquinone], for which the DNA damage entry in data set [2] is “can induce DNA damage”. Moreover, in data set [3], the calcium-mediated signaling entry was “perturb” and the “thiol-containing compounds in cells” value is “can deplete”.

In the case of `CC1=C(C/C=C(\C)CCC[C@H](C)CCC[C@H](C)CCCC(C)C)C(=O)c2ccccc2C1=O` [phylloquinone, Phylloquinone], the brain sulfotransferase activity entry in data set [4] is reported as “increased”. Besides, in data set [5], the “concentration of menaquinone-4 in the brain” value was “increased; also recorded: augments”.

On to `CC(=O)CC(c1ccccc1)c1c(O)c2ccccc2oc1=O` (stereo not drawn) [warfarin], for which, in data set [4], the “incorporation of labeled sulfate into brain sulfatides” value is recorded as “decrease” and the brain sulfotransferase activity result is listed as “decrease”. Further, in data set [6], the “protein tyrosine phosphorylation in the brain” value is “decreases”.

Take vitamin K: the “protein tyrosine phosphorylation in the brain” value in data set [6] is “increases”.
